Experimental findings from patent publication US20210386791A1, “METHODS OF CELLULAR REPROGRAMMING” (TissueTech, Inc., priority 2018, published 2021) are described below.

The subject of the assay is human corneal fibroblasts (HCF). In words: Time course of nuclear translocation (CD44-ICD, TAK1, JNK1, Cyclin D1, p75NTR) and CD44 immunoprecipitation in HCF treated with HC-HA/PTX3±TGFβ1±inhibitors. The class given is cell-based. The note with it: HC-HA/PTX3+TGFβ1 with inhibitor 10 μM; for nuclear translocation of CD44-ICD at 5 min: immunostaining and Western blotting. How it is done:
Human corneal fibroblasts (P3) were seeded on plastics with or without immobilized HC-HA/PTX3 complex for 72 h in DMEM+10% FBS, then serum starved for 24 h and treated with or without TGFβ1 for 24 h before being harvested for mRNA quantitation or immunostaining. For determination of protein of TGFβ receptor or p75NTR, the cells were treated with or without TGF-β1 for 48 h before collection of protein samples because the protein expression lags behind mRNA expression. For TGF-β1 ELISA, the cells were treated with or without TGF-β1 for 24 h, and then cultured in the fresh medium for another 24 h. The supernatants were collected for TGFβ1 ELISA. For TGFβ2 and TGFβ3 ELISA, the cells were treated with or without TGFβ1 for 48 h. Certain HCF were seeded on glass in DMEM+10% FBS for 24 h, then in DMEM+ITS (insulin-transferrin-selenium) for 24 h, treated with/without PBS or hyaluronic acid (HA) or HC-HA/PTX3±TGFβ1 (10 ng/ml)±Marimastat (10 μM) or ±DAPT (10 μM) or ±both for 0, 5, 15, 30 and 45 minutes before being harvested for immunostaining of CD44-ICD, JNK1, Cyclin D1 and p75NTR and for 5 minutes before being harvested for Western blotting of cytoplasmic and nuclear CD44-ICD, active MT1-MMP, and active γ-secretase after compartmental separation of the cellular components.
HCF, induced human corneal endothelial cells (HCEC), and HCEC monolayer cultures were air-dried and fixed in 4% formaldehyde, pH 7.0, for 15 min at room temperature, rehydrated in PBS, incubated with 0.2% Triton X-100 for 15 min, and rinsed three times with PBS for 5 min each. After incubation with 2% BSA to block non-specific staining for 30 min, they were incubated with the desired first antibody (all at 1:50 dilution) for 16 h at 4° C. After three washes with PBS, they were incubated with corresponding Alexa-Fluor-conjugated secondary IgG (all 1:100 dilutions) for 60 min. The samples were then counterstained with Hoechst 33342 and analyzed with Zeiss LSM 700 confocal microscope (Thornhood, N.Y.). Corresponding mouse and rabbit sera were used as negative controls for primary monoclonal and polyclonal antibodies, respectively.
The native CD44 protein was immune-precipitated by Immunoprecipitation Kit (Abcam, ab206996) with CD44 antibody (Abcam, ab157107) following the vendor's instructions.
Cell lysates were prepared in radioimmunoprecipitation assay (RIPA) buffer or non-denature lysis buffer and resolved on 4-15% (w/v) gradient acrylamide gels for Western blotting. […] Immunoreactive proteins were detected with Western Lighting Chemiluminesence.

The structures appear in SMILES notation.

With `C[C@H](NC(=O)Cc1cc(F)cc(F)c1)C(=O)N[C@H](C(=O)OC(C)(C)C)c1ccccc1` [DAPT], the “nuclear translocation of TAK1, JNK1, Cyclin D1 and p75NTR at later time points” value is “inhibited”; the “nuclear translocation of CD44-ICD at 5 min” value is on record as “inhibited”.
For `CNC(=O)[C@@H](NC(=O)[C@H](CC(C)C)[C@H](O)C(=O)NO)C(C)(C)C` [Marimastat], the “nuclear translocation of TAK1, JNK1, Cyclin D1 and p75NTR at later time points” value is reported as “inhibited”; the “nuclear translocation of CD44-ICD at 5 min” value is listed as “inhibited”.
